Laboratory results taken from patent US7666901B2, “Analogs of 17-hydroxywortmannin as PI3K inhibitors” (Wyeth, priority 2004, dated 2010).

Experiments:
[1] = tested on: T1, PI3K; experiment: Fluorescence polarization assay for PI3K; format: biochemical
T1 construct: PI3K FP IC50
Procedure, shortened: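 PI3K was preincubated with compound at 1% DMSO final, then reacted with PIP2/ATP substrate for 30-60 min. The reaction was stopped with a detector mix giving 10 nM red probe and 70 nM GST-GRP. Fluorescence polarization (mP, Tamra filters) was read 30-90 min later and IC50 determined.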

[2] = tested on: LNCaP (human prostate carcinoma); experiment: Cell proliferation (MTS) assay, LNCaP; format: cell-based; conditions: three days treatment
Procedure, shortened: (§1)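 Cells plated at about 3000 per well in RPMI-1640/10% FBS were dosed with compound one day later. Viability was read by MTS conversion (absorbance 490 nm, 1–2 h) three days after treatment began. Effect is expressed as percent of vehicle-treated growth on the same plate.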

[3] = tested on: MDA468 (human breast cancer cell); experiment: Cell proliferation (MTS) assay, MDA468; format: cell-based; conditions: three days treatment
Procedure, shortened: as §1

[4] = tested on: MDA435 (human breast adenocarcinoma); experiment: Cell proliferation (MTS) assay, MDA435; format: cell-based; conditions: three days treatment
Procedure, shortened: as §1

[5] = tested on: DU145 (human prostate carcinoma/lymphocytic leukemia); experiment: Cell proliferation (MTS) assay, DU145; format: cell-based; conditions: three days treatment
Procedure, shortened: as §1

[6] = tested on: HCT116 cells; experiment: Apoptosis assay (Apo-ONE Caspase-3/7), HCT116; format: cell-based, human
Procedure: Cells are plated in a 96-well plate at a density of 3000 cells per well. 24 hr later cells are treated with single agent or combination as indicated. Apoptosis is measured at 24 hr and 48 hr post drug treatment by Apo-ONE Caspase-3/7 assay kit (cat # G7791, Promega Corp.) following the protocol provided by the vendor. Assay mix is added to cells and incubated at room temperature for 3 hours with gentle mixing using a plate shaker. The fluorescence of each well is read using the Victor Wallac Plate Reader. Each experimental plate contains blank wells (without cells) as background fluorescence that is subtracted from all wells to obtain experimental values. Data are expressed as relative fluorescent units (RFLU) or as Apo-ONE units.

[7] = tested on: colon carcinoma, NSCLC, DU145 and MDA231 cell lines; experiment: Tumor cell growth assay, combination with MEK inhibitors, tumor line panel; format: cell-based, human; conditions: HCT116, HT29, SW620, SW480, LS-174T, Caco2, Lovo, A549, H157, DU145, MDA231
Procedure: Human tumor cell are all obtained from ATCC, and are cultured using standard cell culture methods. Cells are plated in 96-well culture plates at 1000 to 3000 cells per well. One day following plating, cells are treated with various doses of PI3K inhibitor Compound 4 or Compound 5 alone or with a low constant dose of MEK inhibitor 2-(2-chloro-4-iodoanilino)-N-(cycloprorylmethoxy-3,4-difluobenzamide) (1 μg/ml) or UO126 (5 μg/ml). UO126 is also known as 1,4-diamino-2,3-dicyano-1,4-bis[2-aminophenylthio]butadiene. In some experiments, cells are treated alone with various doses of the MEK inhibitor (2-(2-chloro-4-iodoanilino)-N-(cycloprorylmethoxy-3,4-difluobenzamide)), or HER2/neu inhibitor HKI-272, or mTOR inhibitor CCI-779, or with a low constant dose of Compound 4 (0.1 μg/ml). […] Three days after drug treatment, viable cell densities are determined by metabolic conversion (by viable cells) of the dye MTS, an established cell proliferation assay. […] The MTS assay results are read in a 96-well plate reader by measuring absorbance at 490 nm. The effect of each treatment is calculated as percent of control growth relative to the vehicle DMSO-treated cells grown in the same culture plate. […]

COC[C@H]1OC(=O)/C(=C/N(CCO)C(C)(C)C)C2=C(O)C(=O)C3=C([C@H](OC(C)=O)C[C@@]4(C)C3CC[C@@H]4O)[C@]21C (stereo partly drawn) [Compound 4, (1E,4S,4aR,5R,6aS,7S)-1-{[tert-butyl(2-hydroxyethyl)amino]methylene}-7,11-dihydroxy-4-(methoxymethyl)-4a,6a-dimethyl-2,10-dioxo-1,2,4,4a,5,6,6a,7,8,9,9a,10-dodecahydroindeno[4,5-h]isochromen-5-yl acetate]
PI3K FP IC50 ([1]; Table 1): 0.596 µg/mL | IC50 ([1]; Table 2): 1000 nM | LNCaP IC50 ([2]; Table 1): 0.09 µg/mL | LNCaP IC50 ([2]; Table 2): 0.05 µg/mL | MDA468 IC50 ([3]; Table 1): 0.3 µg/mL | MDA468 IC50 ([3]; Table 2): 0.51 µg/mL | MDA435 IC50 ([4]; Table 1): 6 µg/mL | MDA435 IC50 ([4]; Table 2): 3.5 µg/mL | DU145 IC50 ([5]; Table 1): 1.5 µg/mL | DU145 IC50 ([5]; Table 2): 1 µg/mL | induction of apoptosis in combination with MEK inhibitor 2-(2-chloro-4-iodoanilino)-N-(cycloprorylmethoxy-3,4-difluobenzamide) [6]: synergistic induction of apoptosis | growth inhibition in combination with MEK inhibitors UO126 and 2-(2-chloro-4-iodoanilino)-N-(cycloprorylmethoxy-3,4-difluobenzamide) [7]: broad synergistic growth inhibition
